Data on 6 compounds can be found in patent US7829721B2, “Specific caspase-10 inhibitors” (Merck Patent GmbH, priority 2004, dated 2010).

One assay deals with diabetic rats. The note with it: cited from earlier work.
A further assay has as its target T1, caspase 2 (Homo sapiens, UniProt P42575).
T1 sequence (P42575 170-325 limits assumed): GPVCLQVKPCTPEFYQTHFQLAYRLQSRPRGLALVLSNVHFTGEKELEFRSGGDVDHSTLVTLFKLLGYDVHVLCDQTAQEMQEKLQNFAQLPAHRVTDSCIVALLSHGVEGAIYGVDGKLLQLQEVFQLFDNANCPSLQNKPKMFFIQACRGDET
T1 sequence (P42575 348-452 limits assumed): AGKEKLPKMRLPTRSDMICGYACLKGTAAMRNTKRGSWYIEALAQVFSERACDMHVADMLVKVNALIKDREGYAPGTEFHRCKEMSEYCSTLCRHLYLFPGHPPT
Put plainly: Caspase inhibition, delayed-time fluorescence method (europium substrate Eu-W1284-CDEVDK-QSy-7).

The next assay deals with T2, caspase 3 (Homo sapiens, UniProt P42574).
T2 sequence (P42574 29-175 limits assumed): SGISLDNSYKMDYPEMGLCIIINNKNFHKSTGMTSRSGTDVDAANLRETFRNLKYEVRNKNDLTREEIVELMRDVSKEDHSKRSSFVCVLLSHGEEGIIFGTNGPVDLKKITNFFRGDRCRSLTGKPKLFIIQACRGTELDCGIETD
T2 sequence (P42574 176-277 limits assumed): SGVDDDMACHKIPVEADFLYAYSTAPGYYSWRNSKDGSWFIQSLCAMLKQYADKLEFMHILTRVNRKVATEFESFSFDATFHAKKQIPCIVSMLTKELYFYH
The description is as above.

The next assay concerns the target T3, caspase 6 (Homo sapiens, UniProt P55212).
T3 sequence (P55212 24-179 limits assumed): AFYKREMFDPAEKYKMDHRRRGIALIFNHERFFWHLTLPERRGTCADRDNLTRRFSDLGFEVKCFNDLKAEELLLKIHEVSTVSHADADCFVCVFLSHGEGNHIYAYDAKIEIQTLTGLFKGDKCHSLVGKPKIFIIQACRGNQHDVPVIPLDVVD
T3 sequence (P55212 194-293 limits assumed): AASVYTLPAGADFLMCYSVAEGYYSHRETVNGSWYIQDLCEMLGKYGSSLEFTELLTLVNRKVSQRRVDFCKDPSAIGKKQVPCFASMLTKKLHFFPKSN
As to the kind of experiment: Caspase inhibition, delayed-time fluorescence method (europium substrate Eu-W1284-CVEIDK-QSy-7).

A further assay has as its target caspase 8 (Homo sapiens, UniProt Q14790). Put plainly: Caspase inhibition, delayed-time fluorescence method (europium substrate Eu-W1284-CIETDK-QSy-7).
In another assay the target is T4, caspase 9 (Homo sapiens, UniProt P55211).
T4 sequence (P55211 1-315 limits assumed): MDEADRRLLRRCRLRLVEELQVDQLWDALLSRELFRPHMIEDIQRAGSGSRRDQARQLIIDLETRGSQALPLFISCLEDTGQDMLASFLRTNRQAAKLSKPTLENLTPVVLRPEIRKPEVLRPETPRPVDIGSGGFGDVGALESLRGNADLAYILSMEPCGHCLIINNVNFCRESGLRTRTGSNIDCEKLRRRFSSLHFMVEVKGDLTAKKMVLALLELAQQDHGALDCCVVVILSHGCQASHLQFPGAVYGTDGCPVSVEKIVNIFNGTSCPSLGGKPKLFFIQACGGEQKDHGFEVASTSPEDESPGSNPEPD
T4 sequence (P55211 331-416 limits assumed): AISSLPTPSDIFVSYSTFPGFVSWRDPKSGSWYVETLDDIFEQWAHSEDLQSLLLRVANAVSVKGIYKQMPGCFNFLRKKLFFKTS
As to the kind of experiment: Caspase inhibition, delayed-time fluorescence method (europium substrate Eu-W1284-CLEHDK-QSy-7).

In the next assay the target is T5, caspase-10 (Homo sapiens, UniProt Q92851).
T5 sequence (Q92851 220-415 limits assumed): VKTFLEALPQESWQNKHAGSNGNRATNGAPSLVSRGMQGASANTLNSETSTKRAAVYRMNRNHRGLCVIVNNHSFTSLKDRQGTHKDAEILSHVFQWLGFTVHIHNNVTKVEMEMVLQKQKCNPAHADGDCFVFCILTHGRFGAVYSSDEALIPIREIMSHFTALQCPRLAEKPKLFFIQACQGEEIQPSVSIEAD
T5 sequence (Q92851 416-521 limits assumed): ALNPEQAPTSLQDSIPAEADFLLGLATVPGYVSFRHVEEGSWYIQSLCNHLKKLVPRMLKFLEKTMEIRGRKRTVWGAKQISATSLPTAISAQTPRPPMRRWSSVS
Put plainly: Caspase inhibition, delayed-time fluorescence method (europium substrate Eu-W1284-CIETDK-QSy-7).

The structures appear in SMILES notation.

Sequence of caspase 8 (Q14790 217-374 limits assumed): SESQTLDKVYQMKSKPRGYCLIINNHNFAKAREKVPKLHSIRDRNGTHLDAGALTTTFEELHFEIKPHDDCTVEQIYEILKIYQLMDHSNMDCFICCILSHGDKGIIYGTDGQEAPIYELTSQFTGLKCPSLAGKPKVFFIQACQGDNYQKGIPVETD
Sequence of caspase 8 (Q14790 385-479 limits assumed): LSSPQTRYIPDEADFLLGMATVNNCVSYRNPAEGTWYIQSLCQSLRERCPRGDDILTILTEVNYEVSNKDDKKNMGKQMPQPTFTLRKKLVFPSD
Procedure for caspase 8: (§1) The substrate used is a tetrapeptide specific to this caspase, having at one of its ends a fluorescent europium marker (W1284) and at the other end a europium chelate fluorescence quencher (QSy-7): Eu-W1284-CIETDK-QSy-7.
(§2) The caspase cleaves the substrate, releasing the quencher. Thus, by excitation at 340 nm, the signal emitted by the fluorescence of the europium is read by WALLAC Victor^2 reader at 615 nm.
They are ready for use or can be divided into aliquots and stored at −80° C. […] 20 μl of this solution are distributed per well of the assay plate. […] The assay is performed with 1 U of enzyme per well, by distributing 20 μl of the diluted solution per well. • The standard inhibitors: The standard inhibitors are dissolved in DMSO to a concentration of 10 mM. They are tested at IC20 and at IC50 on the caspases they inhibit (see following table). The concentrations mentioned in the table are the final concentrations in the assay wells.
(§3) They are then distributed in the wells using this solution to reach the final concentration of IC20 or IC50, i.e. 3 μl in 33 μl of final reaction volume (dilution 1/11). Thus, the final concentration of DMSO in the well is 0.3% (v/v) final. […] An intermediate dilution (1/6.6) is pre-pared in DMSO by diluting 10 μl of the concentrated solution in 66 μl of DMSO (final volume). […] The inhibitors are then distributed in the wells to reach the final screening concentration (10 μM), i.e. 3 μl in 33 μl of final reaction volume (dilution 1/11) and a final concentration of DMSO of 0.3% (v/v) in the well.
The volumes and the protocol were optimised for automated use.
(§4) The incubation takes place for 3 hours 30 minutes at room temperature before reading the fluorescence in delayed time on the WALLAC Victor^2 reader with the filters corresponding to the fluorescence of europium (excitation filter: 340 nm, emission filter: 615 nm).
(§5) The inhibitors are diluted using solutions with concentrations of less than 20 mM in DMSO, and then prediluted in the caspase buffer.
Procedure for caspase-10: as §1, §2
20 μl of this solution are distributed per well of the assay plate. […] The assay is performed with 1 U of enzyme per well, by distributing 20 μl of the diluted solution per well. • The standard inhibitors: The standard inhibitors are dissolved in DMSO to a concentration of 10 mM.
as §3, §4, §5

As for `Cc1ncc(CO)c(CN)c1O` [pyridoxamine], the “death of the pericytes” value in the assay with diabetic rats (diabetic rats treated for 29 weeks, versus untreated rats) was “prevents the death of the pericytes”.
Turning to `N=C(N)NN` [aminoguanidine], in the assay with diabetic rats (diabetic rats treated for 26 weeks), the “reduced formation of acellular capillaries” value is given as 80%.
As a reminder, the IC50 is the concentration that gives 50% inhibition. Low readings indicate higher potency, high ones lower potency. `Cc1ccc(-c2ccc(Cl)cc2CC(=O)O)cc1` [Example 12, (4-chloro-4′-methylbiphenyl-2-yl)acetic acid]: the IC50 at caspase 2 was above 200 µM; against caspase 3, above 200 µM; against caspase 6, above 200 µM; on caspase 8 it was above 200 µM; against caspase 9 it was above 200 µM; against caspase-10, 13.1 µM.
For the compound `O=C(O)Cc1cc(Cl)ccc1-c1ccc(Cl)cc1` [Example 14, (4,4′-dichlorobiphenyl-2-yl)acetic acid], the half-maximal inhibitory concentration (IC50) at caspase 2 is above 200 µM; on caspase 3 it was above 200 µM; against caspase 6, above 200 µM; against caspase 8, above 200 µM; on caspase 9, above 200 µM; at caspase-10 it was 10.1 µM.
Regarding `COc1ccc(-c2ccc(Cl)cc2CC(=O)O)cc1` [Example 16, (4-chloro-4′-methoxybiphenyl-2-yl)acetic acid], the IC50 on caspase 2 is above 200 µM; against caspase 3 it was above 200 µM; at caspase 6, above 200 µM; against caspase 8, above 200 µM; at caspase 9, above 200 µM; at caspase-10, 9 µM.
Turning to `O=C(O)Cc1cc(Cl)ccc1-c1ccc(C(F)(F)F)cc1` [Example 15, [4-chloro-4′-(trifluoromethyl)biphenyl-2-yl]acetic acid], the IC50 was above 200 µM at caspase 2; above 200 µM at caspase 3; above 200 µM on caspase 6; above 200 µM at caspase 8; above 200 µM against caspase 9; 23.6 µM on caspase-10.
